# Data reported in patent publication US20090317376A1, “Compositions And Methods For Lipo Modeling” (Georgetown University MEDICAL SCHOOL, priority 2005, published 2009).
# Entries after “also recorded” stand apart in the source; their conditions may differ.
# Assays:
# 3T3-L1 preadipocytes = assay: Preadipocyte proliferation (mitogenic assay); format: cell-based, murine
# Description: (§1) To mimic stress-released NPY in vitro, conditioned media from, or coculture with, neuroblastoma SKNBE cells (a model of sympathetic neurons which release 0.1 pM NPY) is used to treat endothelial cells and 3T3-L1 preadipocytes. Both cell lines express all NPYRs but lack NPY (confirmed by RT-PCR and IHC, FIG. […] 6). […] When 3T3-L1 preadipocytes are cocultured with HMVEC, there is no significant mitogenic response between treated and untreated cells.
# (§2) Co-culture: For mitogenic assay and expression studies, co-culture is performed in a Costar Transwell system. Cells are plated on the 6-well plates and the inserts with 0.4 μm Polyester membranes. After they reach 30% confluence, the inserts are placed into plates with other cells. Co-culture of neuroblastomas/SCG neurons with aECs are carried out in EC media and with preadipocytes—in preadipocyte growth media. […] After 48 h, the cells are counted with a coulter counter. […]
# (§3) Mitogenic assays: 3T3-L1 pre-adipocytes are allowed to grow to 30% confluency before serum-starving the cells. […] Proliferation is determined by cell counting using a coulter counter (Beckman Coulter, Miami, Fla.). […] After 24 h, cells are harvested in a 96-well harvester (Tomtec) and counted in a Betaplate Liquid Scintillation Counter (Wallac).
# (§4) 1. […] After 24 h, cells were harvested in a 96-well harvester (Tomtec) and counted in a Betaplate Liquid Scintillation Counter (Wallac). […]
# endothelial cells = assay: Endothelial cell proliferation (mitogenic assay); format: cell-based, human
# Description: as §1, §2, §3, §4
# abdominal fat = assay: Stress and high-fat diet induced obesity model; format: in vivo, mice
# Description: In environmentally-induced obese mice, normal NWT C57BL/6 and SV129 mice are subjected to low levels of chronic stress (cold stress, 1 cm ice-water bath at the base of the cage for 1 hour, a technique that increases NPY and stimulates vascular growth) and fed a high-fat, “comfort food” diet consisting of lard and sucrose (standard chow diet/high fat diet: fat: 12%/45%, carbohydrates: 60%/35%, and protein: 28%/20%). These mice are treated with NPY, Y2R agonists and Y2R antagonists. The growth of fat deposits is monitored by MRI and vascularization is confirmed by immunohistochemistry (IHC). ELISA, IHC, and quantitative real-time RT-PCR are used to determine how diet and stress affect NPY and Y2R levels. Core body temperature and food intake are monitored to determine changes in metabolism (FIG. 15). Glucose tolerance tests and lipid profiles of the mice are used to determine whether altering adipose mass results in a change in insulin, glucose, FFA, TG or cholesterol in the plasma (FIG. 18).
# Magnetic Resonance Imaging (MRI): A Brukker 7-Tesla small-animal magnetic resonance imager coil is used to visualize and noninvasively quantitate various fat depots. A 3-dimensional (3D) T2-weighted (T2W) imaging protocol optimized for high contrast fat-imaging is implemented. […] Quantification of the total body fat as well as separate specific fat depots is calculated using thresholding and voxel count plugins from NIH image J software. VolumeJ is used to render, in a 3D image, the various fat depots. The animal management system that is used in conjunction with the MRI is equipped to take core, skin, ambient and water blanket temperature measurements that are monitored during the imaging. The water blanket is used to regulate core temperature of the rodent during anesthesia. […]
# High fat diet: Mice are given either a Standard Chow (SC) diet: 28% protein, 60% carbohydrate, 12% fat (4 kcal/gm) or a High Fat (HF) diet: 20% protein, 35% carbohydrate, 45% fat (4.7 kcal/gm) from Research Diets for 14-28 days. Food consumption is measured daily from the various treatment groups and pairfeeding ensures that changes seen in weight and visceral fat are due to the peripheral effects of the treatment. […]
# [1] = intra-fat injection, HF and stress
# [2] = local Y2R antagonist, stress and HF-diet
# [3] = local intra-fat injections, within 2-weeks, HF + stress
molecule,measurement,setting,value
N=C(N)NCCC[C@H](NC(=O)CC1(CC(=O)N2CCN(C3c4ccccc4NC(=O)c4ccccc43)CC2)CCCC1)C(=O)NCCn1c(=O)n(-c2ccccc2)n(-c2ccccc2)c1=O (stereo partly drawn) [BIIE0246],block of NPY- and neuroblastoma-conditioned media-stimulated preadipocyte proliferation,3T3-L1 preadipocytes; BIIE0246 1 μM,blocked
same,block of NPY- and neuroblastoma-conditioned media-stimulated endothelial cell proliferation,endothelial cells; BIIE0246 1 μM,blocked
same,stress-amplification of visceral fat (MRI fat volume fraction),abdominal fat; four weeks daily 1-hr cold stress + high fat diet,reversed
same,stress-induced insulin-to-NPY switch and metabolic abnormalities,abdominal fat; intra-fat administration,fully prevented
same,fat mass,abdominal fat; [1],reduced fat mass
same,imbalance of NPY-to-epinephrine plasma levels,abdominal fat; [1],reversed this imbalance
same,stress+HF-induced hyperlipidemia,abdominal fat; intra-fat injections,did not alter
same,UCP-1/2 expression in WAT,"abdominal fat; intra-fat injections, stress+HF",did not alter
same,adipocyte apoptosis (TUNEL),abdominal fat; [2],increased their apoptosis
same,adipocyte proliferation (Ki67+ staining),abdominal fat; [2],inhibited adipocyte proliferation
same,insulin levels,abdominal fat; [3],increased insulin levels
same,metabolic profile,abdominal fat; [3],improved metabolic profile
same,plasma NPY levels,abdominal fat; [3],normalized
same,plasma adipokine levels,abdominal fat; [3],normalized
same,tissue steatosis (liver and skeletal muscle),"abdominal fat; local intra-fat injections, HF + stress, listed as Y2R antagonist",inhibited tissue steatosis; also recorded: reduced liver and skeletal muscle steatosis
same,visceral fat,"abdominal fat; nonstressed WT mice, FIG. 17",significant reduction in visceral fat
same,lowered plasma osteocalcin levels (bone loss response),"abdominal fat; stress combined with HF, intra-fat delivery",completely normalized
same,"stress-induced WAT cellularity, proliferation of small adipocytes",abdominal fat; stress in HF-fed mice,reversed
same,visceral fat volume fraction,"abdominal fat; stressed C57BL/6 WT mice, FIG. 17",reversed
same,other fat depots,"abdominal fat; stressed HF-fed mice, 2-weeks",without significantly changing other depots
same,reduction of abdominal (subcutaneous and visceral) depot,"abdominal fat; stressed HF-fed mice, pellet 10 μg/14 days or daily injections 1 μM, 2-weeks",40%
same,visceral fat volume fraction,"abdominal fat; stressed SV129 mice on high-fat diet, Y2R antagonist slow-release pellets, FIG. 16",reduced to a level that is comparable to nonstressed SV129 mice given a placebo pellet
neuropeptide Y [NPY],preadipocyte proliferation,3T3-L1 preadipocytes; NPY treatment of 3T3-L1 preadipocytes,stimulated
same,endothelial cell proliferation,endothelial cells; NPY treatment of endothelial cells,stimulated
